According to the supplement of paper PMC11451515:

Experiments:
Conditions in all cases: 48 h
SEM cells [1] = assay: cell viability relative to DMSO control; higher = less cytotoxic
Method in brief: (§1)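 Before seeding, each leukemia line was adapted for at least four passages in each medium. NOMO1 or SEM cells (500 cells/well) and P12-Ichikawa cells (1000 cells/well) went into 1536-well plates at 5 μl, then received library compounds in DMSO by pin dosing across 11 threefold concentrations, 47 μM to 0.79 nM. Readout was CellTiter-Glo One luminescence after 48 h at 37°C, and viability is given as a per-plate percentage of DMSO wells, with cell-free wells as background.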

NOMO1 [2] = assay: as above
Method in brief: as §1

P12-Ichikawa [3] = assay: as above
Method in brief: as §1

NOMO1 [4] = assay: AUC of viability dose-response curve (% viability x log10 dose units); higher = less sensitive
Method in brief: (§2)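 Medium-adapted leukemia cells in 1536-well plates, at 500 or 1000 cells/well, were incubated for 48 h at 37°C with library compounds in DMSO at 11 threefold doses from 47 μM to 0.79 nM. CellTiter-Glo One luminescence normalised per plate to DMSO and cell-free wells was fitted with a four-parameter log-logistic model over log10 doses. Area under the curve was integrated from this fit by trapezoidal rule, with curves beyond full viability scaled and failed quality-control curves removed.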

P12-Ichikawa [5] = assay: as above
Method in brief: as §2

SEM cells [6] = assay: as above
Method in brief: as §2

O=C(O)[C@@H](c1ccc(OCc2ccc3ccccc3n2)cc1)C1CCCC1
cell viability [%]
Conditions | NOMO1 [2] | P12-Ichikawa [3] | SEM cells [1]
HPLM + 10% dialyzed FBS, 0.000781 µM | 118 | 113 | 116
HPLM + 10% dialyzed FBS, 0.00234 µM | 114 | 114 | 124
HPLM + 10% dialyzed FBS, 0.00702 µM | 118 | 106 | 122
HPLM + 10% dialyzed FBS, 0.0211 µM | 126 | 109 | 114
HPLM + 10% dialyzed FBS, 0.0632 µM | 106 | 109 | 123
HPLM + 10% dialyzed FBS, 0.19 µM | 119 | 102 | 45.5
HPLM + 10% dialyzed FBS, 0.569 µM | 115 | 107 | 125
HPLM + 10% dialyzed FBS, 1.71 µM | 119 | 99.6 | 114
HPLM + 10% dialyzed FBS, 5.12 µM | 110 | 106 | 43.4
HPLM + 10% dialyzed FBS, 15.4 µM | 109 | 102 | 113
HPLM + 10% dialyzed FBS, 46.1 µM | 90.5 | 98.7 | 95.6
RPMI 5 mM glucose + 10% FBS, 0.000781 µM | 104 | 116 | –
RPMI 5 mM glucose + 10% FBS, 0.00234 µM | 117 | 116 | –
RPMI 5 mM glucose + 10% FBS, 0.00702 µM | 107 | 110 | –
RPMI 5 mM glucose + 10% FBS, 0.0211 µM | 109 | 110 | –
RPMI 5 mM glucose + 10% FBS, 0.0632 µM | 125 | 102 | –
RPMI 5 mM glucose + 10% FBS, 0.19 µM | 111 | 106 | –
RPMI 5 mM glucose + 10% FBS, 0.569 µM | 104 | 107 | –
RPMI 5 mM glucose + 10% FBS, 1.71 µM | 121 | 107 | –
RPMI 5 mM glucose + 10% FBS, 5.12 µM | 113 | 92.8 | –
RPMI 5 mM glucose + 10% FBS, 15.4 µM | 102 | 98 | –
RPMI 5 mM glucose + 10% FBS, 46.1 µM | 120 | 96.9 | –
RPMI 5 mM glucose + 10% dialyzed FBS, 0.000781 µM | 119 | 108 | 109
RPMI 5 mM glucose + 10% dialyzed FBS, 0.00234 µM | 101 | 112 | 151
RPMI 5 mM glucose + 10% dialyzed FBS, 0.00702 µM | 122 | 112 | 120
RPMI 5 mM glucose + 10% dialyzed FBS, 0.0211 µM | 113 | 113 | 127
RPMI 5 mM glucose + 10% dialyzed FBS, 0.0632 µM | 123 | 108 | 148
RPMI 5 mM glucose + 10% dialyzed FBS, 0.19 µM | 119 | 109 | 52
RPMI 5 mM glucose + 10% dialyzed FBS, 0.569 µM | 103 | 106 | 129
RPMI 5 mM glucose + 10% dialyzed FBS, 1.71 µM | 108 | 101 | 124
RPMI 5 mM glucose + 10% dialyzed FBS, 5.12 µM | 106 | 95.8 | 19.4
RPMI 5 mM glucose + 10% dialyzed FBS, 15.4 µM | 100 | 102 | 114
RPMI 5 mM glucose + 10% dialyzed FBS, 46.1 µM | 95.4 | 100 | 83.1

AUC of viability dose-response curve
Conditions | HPLM + 10% dialyzed FBS | RPMI 5 mM glucose + 10% FBS | RPMI 5 mM glucose + 10% dialyzed FBS
NOMO1 [4] | 466 | 470 | 454
P12-Ichikawa [5] | 450 | 435 | 458

C/C(=C\c1csc(C)n1)[C@@H]1C[C@@H]2O[C@@H]2CCC[C@H](C)[C@H](O)[C@@H](C)C(=O)C(C)(C)[C@@H](O)CC(=O)O1
cell viability [%]
Conditions | NOMO1 [2] | P12-Ichikawa [3] | SEM cells [1]
HPLM + 10% dialyzed FBS, 0.000781 µM | 33.3 | 37.2 | 26.5
HPLM + 10% dialyzed FBS, 0.00234 µM | 25.8 | 25.2 | 21.4
HPLM + 10% dialyzed FBS, 0.00702 µM | 27.8 | 25 | 22.1
HPLM + 10% dialyzed FBS, 0.0211 µM | 28.4 | 26.8 | 22.7
HPLM + 10% dialyzed FBS, 0.0632 µM | 29.2 | 27.1 | 19.9
HPLM + 10% dialyzed FBS, 0.19 µM | 31.6 | 24.6 | 20.3
HPLM + 10% dialyzed FBS, 0.569 µM | 30.1 | 23.9 | 23.7
HPLM + 10% dialyzed FBS, 1.71 µM | 30.5 | 25.2 | 21.5
HPLM + 10% dialyzed FBS, 5.12 µM | 34.8 | 21.1 | 19.1
HPLM + 10% dialyzed FBS, 15.4 µM | 34 | 21.5 | 20.8
HPLM + 10% dialyzed FBS, 46.1 µM | 30.7 | 22.6 | 20.7
RPMI 5 mM glucose + 10% FBS, 0.000781 µM | 27.2 | 28.8 | 14.8
RPMI 5 mM glucose + 10% FBS, 0.00234 µM | 19.5 | 14.8 | 18.4
RPMI 5 mM glucose + 10% FBS, 0.00702 µM | 17.9 | 19.1 | 16.2
RPMI 5 mM glucose + 10% FBS, 0.0211 µM | 20.3 | 20.3 | 16
RPMI 5 mM glucose + 10% FBS, 0.0632 µM | 18.1 | 20 | 16.4
RPMI 5 mM glucose + 10% FBS, 0.19 µM | 18 | 20.6 | 16.4
RPMI 5 mM glucose + 10% FBS, 0.569 µM | 17.8 | 21.6 | 16.2
RPMI 5 mM glucose + 10% FBS, 1.71 µM | 18.7 | 20.8 | 13.4
RPMI 5 mM glucose + 10% FBS, 5.12 µM | 18.1 | 17.4 | 16.1
RPMI 5 mM glucose + 10% FBS, 15.4 µM | 22.8 | 18.1 | 16.3
RPMI 5 mM glucose + 10% FBS, 46.1 µM | 19.8 | 19.3 | 13.4
RPMI 5 mM glucose + 10% dialyzed FBS, 0.000781 µM | 84.5 | 67.2 | 32.1
RPMI 5 mM glucose + 10% dialyzed FBS, 0.00234 µM | 20.9 | 27.9 | 17.1
RPMI 5 mM glucose + 10% dialyzed FBS, 0.00702 µM | 20 | 33.6 | 19.3
RPMI 5 mM glucose + 10% dialyzed FBS, 0.0211 µM | 21.6 | 27.2 | 16.8
RPMI 5 mM glucose + 10% dialyzed FBS, 0.0632 µM | 23.3 | 34.7 | 15.6
RPMI 5 mM glucose + 10% dialyzed FBS, 0.19 µM | 20.9 | 33.1 | 17.7
RPMI 5 mM glucose + 10% dialyzed FBS, 0.569 µM | 21.7 | 33.7 | 19.6
RPMI 5 mM glucose + 10% dialyzed FBS, 1.71 µM | 25.8 | 31.4 | 15.2
RPMI 5 mM glucose + 10% dialyzed FBS, 5.12 µM | 24.2 | 29.1 | 18.7
RPMI 5 mM glucose + 10% dialyzed FBS, 15.4 µM | 31.1 | 31.3 | 21.8
RPMI 5 mM glucose + 10% dialyzed FBS, 46.1 µM | 23.3 | 35.9 | 19.2

NOMO1 [4]
Conditions | AUC of viability dose-response curve
HPLM + 10% dialyzed FBS | 146
RPMI 5 mM glucose + 10% FBS | 93
RPMI 5 mM glucose + 10% dialyzed FBS | 138

CC(=O)C1=C(O)C2(C)C(=CC1=O)Oc1c(C(C)=O)c(O)c(C)c(O)c12 (configuration not stated)
cell viability [%], SEM cells [1]
Conditions | HPLM + 10% dialyzed FBS | RPMI 5 mM glucose + 10% FBS
0.000781 µM | 83.1 | 99.1
0.00234 µM | 120 | 145
0.00702 µM | 123 | 123
0.0211 µM | 123 | 129
0.0632 µM | 124 | 128
0.19 µM | 133 | 152
0.569 µM | 118 | 153
1.71 µM | 149 | 124
5.12 µM | 133 | 136
15.4 µM | 149 | 133
46.1 µM | 124 | 130

AUC of viability dose-response curve
Conditions | NOMO1 [4] | P12-Ichikawa [5] | SEM cells [6]
HPLM + 10% dialyzed FBS | 328 | 347 | 459
RPMI 5 mM glucose + 10% FBS | 305 | 342 | 452
RPMI 5 mM glucose + 10% dialyzed FBS | 321 | 375 | 448
